pIC50, pKd: −log10 of the molar value.

Assay [1] has as its target Transcriptional enhancer factor TEF-1 (Homo sapiens, UniProt P28347).
Description: Binding affinity to human recombinant N-terminal His-tagged TEAD1 (residues 209 to 424) expressed in Escherichia coli BL21 (DE3) assessed as dissociation constant
Assay [2] has as its target Replicase polyprotein 1ab (Severe acute respiratory syndrome coronavirus 2, UniProt P0DTD1).
Description: Binding affinity to SARS-CoV-2 Main protease assessed as dissociation constant by SPR analysis
The next assay has as its target Interleukin-1 beta (Homo sapiens, UniProt P01584). Description: Binding affinity to Interleukin-1beta (unknown origin) assessed as dissociation constant.
The target of a further assay is T1, Pantothenate synthetase (Mycobacterium tuberculosis, UniProt P9WIL5).
T1 sequence (P9WIL5 whole entry): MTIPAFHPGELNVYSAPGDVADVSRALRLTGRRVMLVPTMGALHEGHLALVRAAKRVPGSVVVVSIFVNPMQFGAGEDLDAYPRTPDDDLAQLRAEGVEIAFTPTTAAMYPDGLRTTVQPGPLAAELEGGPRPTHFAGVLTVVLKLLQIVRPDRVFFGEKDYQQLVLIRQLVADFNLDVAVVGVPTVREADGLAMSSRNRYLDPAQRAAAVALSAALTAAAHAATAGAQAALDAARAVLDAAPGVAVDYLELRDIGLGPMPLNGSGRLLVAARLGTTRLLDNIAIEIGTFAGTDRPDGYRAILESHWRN
Description: Inhibition of Mycobacterium tuberculosis H37Ra pantothenate synthetase.

The target of assay [3] is Transcriptional enhancer factor TEF-4 (Homo sapiens, UniProt Q15562).
Transcriptional enhancer factor TEF-4, sequence (Q15562 whole entry): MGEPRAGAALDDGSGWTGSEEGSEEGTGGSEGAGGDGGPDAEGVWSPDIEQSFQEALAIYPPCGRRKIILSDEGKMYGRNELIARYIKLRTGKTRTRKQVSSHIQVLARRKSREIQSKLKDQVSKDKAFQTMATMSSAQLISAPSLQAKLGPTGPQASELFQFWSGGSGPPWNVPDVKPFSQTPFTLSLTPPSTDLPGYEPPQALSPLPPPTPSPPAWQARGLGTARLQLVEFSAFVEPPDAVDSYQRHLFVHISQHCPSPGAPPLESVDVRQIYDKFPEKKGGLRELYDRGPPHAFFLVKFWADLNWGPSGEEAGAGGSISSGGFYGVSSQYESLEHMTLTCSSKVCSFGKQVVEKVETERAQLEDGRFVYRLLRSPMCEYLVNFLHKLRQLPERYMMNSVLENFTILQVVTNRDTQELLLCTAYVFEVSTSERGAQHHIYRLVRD
Description: Binding affinity to human recombinant N-terminal His-tagged TEAD2 (residues 209 to 424) expressed in Escherichia coli BL21 (DE3) assessed as dissociation constant

Interleukin-1 beta, sequence (P01584 117-269 limits assumed): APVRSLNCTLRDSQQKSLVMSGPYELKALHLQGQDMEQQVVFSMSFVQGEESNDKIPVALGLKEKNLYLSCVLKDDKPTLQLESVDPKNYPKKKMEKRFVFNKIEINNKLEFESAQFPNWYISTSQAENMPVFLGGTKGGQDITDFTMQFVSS
Transcriptional enhancer factor TEF-1, sequence (P28347 whole entry): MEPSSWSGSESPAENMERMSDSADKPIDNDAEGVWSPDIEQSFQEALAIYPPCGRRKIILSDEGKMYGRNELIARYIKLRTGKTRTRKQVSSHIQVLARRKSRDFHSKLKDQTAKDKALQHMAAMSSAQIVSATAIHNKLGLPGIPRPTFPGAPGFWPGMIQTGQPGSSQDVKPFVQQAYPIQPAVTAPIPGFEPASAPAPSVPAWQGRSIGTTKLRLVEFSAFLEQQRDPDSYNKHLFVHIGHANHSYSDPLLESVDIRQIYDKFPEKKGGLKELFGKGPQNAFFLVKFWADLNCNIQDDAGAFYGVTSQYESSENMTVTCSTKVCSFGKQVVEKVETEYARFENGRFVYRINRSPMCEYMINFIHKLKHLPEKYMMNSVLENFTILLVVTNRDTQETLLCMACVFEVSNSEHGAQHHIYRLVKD

As a reminder, the pKd is the negative decadic logarithm of the Kd, by convention in mol/L. As to `C=C(F)C(=O)N1C[C@@H](n2cc(-c3cccnc3)nn2)[C@H](OCc2ccc(C(F)(F)F)cc2)C1`, the pKd in assay [1] is 6.77.

For `O=C1N[C@@H](Cc2ccccc2)C(=O)N1c1cncc(F)c1`, in assay [2], the pKd was 4.64.

Turning to `O=C(O)c1cc(NCc2ccccc2OCCOCCOCCOc2ccccc2CNc2cc(C(=O)O)cc(-c3ccnc4ccccc34)c2)cc(-c2ccnc3ccccc23)c1`, the pKd at Interleukin-1 beta is 7.40.

The pIC50 is the IC50 on a negative log10 scale, so that one unit is a factor of ten. At Pantothenate synthetase, `N#Cc1c(N)ncnc1-c1cnn(Cc2ccc(F)c(F)c2)c1` had a pIC50 of 6.82.

On to `N#Cc1cncnc1N`, for which, on Pantothenate synthetase, the pIC50 is 6.47.

Consider `O=C(O)c1ccccc1Nc1cccc(C(F)(F)F)c1` [FLUFENAMIC ACID], for which, in assay [3], the pKd is 4.14.

The values are drawn from ChEMBL document CHEMBL5528034, “Fragment-to-Lead Medicinal Chemistry Publications in 2022” (J Med Chem, 2024).
